Test system: children with PFIC
Assay: Pooled analysis of PEDFIC 1 and PEDFIC 2 (up to 48 weeks): efficacy, sleep, responders vs nonresponders
Format: in vivo, human
Source text: This example describes key outcomes with odevixibat in children with PFIC1 (familial intrahepatic cholestasis 1 [FIC1] deficiency) or PFIC2 ((bile salt export pump [BSEP] deficiency) based on pooled analysis of data from the phase 3 PEDFIC 1 (P1; NCT03566238) and PEDFIC 2 (P2; NCT03659916) studies. This pooled analysis covers up to 48 weeks of odevixibat treatment from P1 and through the planned P2 interim data cut. The following outcomes are described: change in serum bile acids (sBAs), change in pruritus score (measured using the PRUCISION scale; range: 0-4), evaluation of growth and sleep parameters, and safety monitoring. Mean changes in autotaxin (linked to cholestatic pruritus intensity) and plasma 7α-hydroxy-4-cholesten-3-one (p-C4; marker of bile acid synthesis) levels were also summarized.
Patient sleep was evaluated based on caregiver report using the PRUCISION scale and via the clinician- or caregiver-reported Global Impression of Change (CGIC or CaGIC, respectively) sleep scales. Treatment response was defined as an sBA response (sBAs<65 or <102 μmol/L for patients with PFIC1 and PFIC2, respectively) or a pruritus response (a ≥1-point drop from baseline in pruritus score). Mean decreases in caregiver-reported percentage of days with scratching associated with bleeding, needing help falling asleep, and needing soothing were greater among Rs vs NRs (Table 10). At week 48, clinicians and caregivers reported that ≥88% of Rs had moderately or very much better sleep since starting odevixibat (Table 10).
Using pooled data from these studies, changes in parameters of cholestasis, pruritus, and hepatic laboratory markers in patients who responded to odevixibat treatment (Rs) vs treatment nonresponders (NRs). Two responder definitions were examined: 1) sBA response (i.e., sBAs<65 or <102 μmol/L for PFIC1 and PFIC2, respectively) and 2) sBA response or pruritus response (i.e., a ≥1-point drop from baseline in PRUCISION score).

[1] = patients with liver enzyme data at baseline
[2] = patients with liver enzyme data at week 4
[3] = patients with liver enzyme data at week 24
[4] = patients with liver enzyme data at week 48
[5] = pooled P1+P2, all odevixibat-treated patients
[6] = pooled P1+P2, baseline to weeks 37-48
[7] = sBA or pruritus response No, week 24, n 21
[8] = sBA or pruritus response No, weeks 1-4, n 28
[9] = sBA or pruritus response No, weeks 21-24, n 22
[10] = sBA or pruritus response No, weeks 45-48, n 2
[11] = sBA or pruritus response Yes, weeks 1-4, n 47
[12] = sBA or pruritus response Yes, weeks 21-24, n 34
[13] = sBA or pruritus response Yes, weeks 45-48, n 18
[14] = week 4, sBA or Pruritus Response No
[15] = week 4, sBA or Pruritus Response Yes
[16] = week 24, sBA or Pruritus Response No
[17] = week 24, sBA or Pruritus Response Yes
[18] = week 48, sBA or Pruritus Response No
[19] = week 48, sBA or Pruritus Response Yes

CCCCC1(CCCC)CN(c2ccccc2)c2cc(SC)c(OCC(=O)N[C@@H](C(=O)N[C@@H](CC)C(=O)O)c3ccc(O)cc3)cc2S(=O)(=O)N1 [Odevixibat, 1,1-dioxo-3,3-dibutyl-5-phenyl-7-methylthio-8-(N-{(R)-α-[N-((S)-1-carboxypropyl)carbamoyl]-4-hydroxybenzyl}carbamoylmethoxy)-2,3,4,5-tetrahydro-1,2,5-benzothiadiazepine]
sBA or pruritus responders, n (responder rate [n/(n + m)] * 100) [1]: 48 (63) n (%) | sBA responders, n (responder rate [n/(n + m)] * 100) [1]: 24 (39) n (%) | sBA or pruritus responders, n (responder rate [n/(n + m)] * 100) [2]: 43 (61) n (%) | sBA responders, n (responder rate [n/(n + m)] * 100) [2]: 23 (39) n (%) | sBA or pruritus responders, n (responder rate [n/(n + m)] * 100) [3]: 31 (62) n (%) | sBA responders, n (responder rate [n/(n + m)] * 100) [3]: 19 (40) n (%) | sBA or pruritus responders, n (responder rate [n/(n + m)] * 100) [4]: 18 (75) n (%) | sBA responders, n (responder rate [n/(n + m)] * 100) [4]: 15 (63) n (%) | mean change from baseline to week 48 in alanine aminotransferase (ALT) [5]: −82 U/L | mean change from baseline to week 48 in total bilirubin [5]: -18 µmol/L | mean change in height Z score (pooled P1+P2, baseline to week 48): 0.5 | mean change in observer-reported percentage of days needing help falling asleep [6]: −52% | mean change in observer-reported percentage of days needing soothing [6]: −51% | mean change in observer-reported percentage of days seeing blood due to scratching [6]: −25% | mean change in observer-reported percentage of days sleeping with caregiver [6]: −40% | patients who met sBA response criteria (pooled P1+P2, during the analysis period, regardless of genotype): ≥ 50% | mean change from baseline in sBAs (pooled P1+P2, end of the analysis period (up to 48 weeks), n=24): -213 µmol/L | mean change in pruritus score (pooled P1+P2, end of the analysis period (up to 48 weeks), n=32): −1.4 | mean change in sBAs (pooled P1+P2, four weeks after starting odevixibat, n=68, baseline 250): -88 µmol/L | mean change in pruritus score (pooled P1+P2, over the first 4-week period, n=75, baseline 2.9): −0.7 | mean positive pruritus assessments (PPAs) (pooled P1+P2, patients with PFIC1): 48% | mean positive pruritus assessments (PPAs) (pooled P1+P2, patients with PFIC2 (including BSEP subtypes 1 and 2)): above 60% | mean height Z score (pooled P1+P2, week 48, n=20, baseline −1.9 (n=75)): −0.8 | mean weight Z score (pooled P1+P2, week 48, n=21, baseline −1.1 (n=75)): −0.0 | rate of sBA or pruritus responders (pooled P1+P2, weeks 0-24): 57% | rate of sBA responders (pooled P1+P2, weeks 0-24): 31% | rate of sBA or pruritus responders (pooled P1+P2, weeks 25-36): 60% | rate of sBA responders (pooled P1+P2, weeks 25-36): 48% | rate of sBA or pruritus responders (pooled P1+P2, weeks 37-48): 65% | rate of sBA responders (pooled P1+P2, weeks 37-48): 59% | CGIC sleep, moderately or very much better (sBA or pruritus response No, week 4, n 26): 30.8% | CaGIC sleep, moderately or very much better (sBA or pruritus response No, week 4, n 28): 25.0% | CGIC sleep, moderately or very much better [7]: 33.3% | CaGIC sleep, moderately or very much better [7]: 23.8% | CaGIC sleep, moderately or very much better (sBA or pruritus response No, week 48, n 3): 33.3% | CGIC sleep, moderately or very much better (sBA or pruritus response No, week 48, n 4): 25.0% | % Days needing help falling asleep, mean change from baseline [8]: −10.4% | % Days needing soothing, mean change from baseline [8]: −6.0% | % Days with scratching associated with bleeding, mean change from baseline [8]: −6.5% | % days sleeping with caregiver, mean change from baseline [8]: −3.1% | Number of awakenings, mean change from baseline [8]: 1.3 | % Days needing help falling asleep, mean change from baseline [9]: −4.9% | % Days needing soothing, mean change from baseline [9]: 7.8% | % Days with scratching associated with bleeding, mean change from baseline [9]: 3.2% | % days sleeping with caregiver, mean change from baseline [9]: 3.1% | Number of awakenings, mean change from baseline [9]: 1.5 | % Days needing help falling asleep, mean change from baseline [10]: −1.8% | % Days needing soothing, mean change from baseline [10]: 4.2% | % Days with scratching associated with bleeding, mean change from baseline [10]: 12.5% | % days sleeping with caregiver, mean change from baseline [10]: 0.0% | Number of awakenings, mean change from baseline [10]: −4.3 | CaGIC sleep, moderately or very much better (sBA or pruritus response Yes, week 4, n 39): 48.7% | CGIC sleep, moderately or very much better (sBA or pruritus response Yes, week 4, n 42): 57.1% | CaGIC sleep, moderately or very much better (sBA or pruritus response Yes, week 24, n 27): 70.4% | CGIC sleep, moderately or very much better (sBA or pruritus response Yes, week 24, n 32): 59.4% | CaGIC sleep, moderately or very much better (sBA or pruritus response Yes, week 48, n 15): 93.3% | CGIC sleep, moderately or very much better (sBA or pruritus response Yes, week 48, n 18): 88.9% | % Days needing help falling asleep, mean change from baseline [11]: −23.1% | % Days needing soothing, mean change from baseline [11]: −22.5% | % Days with scratching associated with bleeding, mean change from baseline [11]: −16.8% | % days sleeping with caregiver, mean change from baseline [11]: −23.1% | Number of awakenings, mean change from baseline [11]: -−3.1 | % Days needing help falling asleep, mean change from baseline [12]: −56.1% | % Days needing soothing, mean change from baseline [12]: −58.8% | % Days with scratching associated with bleeding, mean change from baseline [12]: −30.9% | % days sleeping with caregiver, mean change from baseline [12]: −48.5% | Number of awakenings, mean change from baseline [12]: -−1.9 | % Days needing help falling asleep, mean change from baseline [13]: −73.0% | % Days needing soothing, mean change from baseline [13]: −74.6% | % Days with scratching associated with bleeding, mean change from baseline [13]: −41.5% | % days sleeping with caregiver, mean change from baseline [13]: −69.1% | Number of awakenings, mean change from baseline [13]: −11.0 | ALT, change from baseline, Mean (SE) (week 4, sBA Response No): 21 (16) U/L | Total bilirubin, change from baseline, Mean (SE) (week 4, sBA Response No): −10 (9) μmol/L | ALT, change from baseline, Mean (SE) (week 4, sBA Response Yes): −28 (37) U/L | Total bilirubin, change from baseline, Mean (SE) (week 4, sBA Response Yes): −8 (4) μmol/L | ALT, change from baseline, Mean (SE) [14]: 9 (4) U/L | Total bilirubin, change from baseline, Mean (SE) [14]: −14 (11) μmol/L | ALT, change from baseline, Mean (SE) [15]: −2 (24) U/L | Total bilirubin, change from baseline, Mean (SE) [15]: −6 (4) μmol/L | ALT, change from baseline, Mean (SE) (week 24, sBA Response No): −10 (11) U/L | Total bilirubin, change from baseline, Mean (SE) (week 24, sBA Response No): −19 (10) μmol/L | ALT, change from baseline, Mean (SE) (week 24, sBA Response Yes): −67 (42) U/L | Total bilirubin, change from baseline, Mean (SE) (week 24, sBA Response Yes): −23 (8) μmol/L | ALT, change from baseline, Mean (SE) [16]: 5 (8) U/L | Total bilirubin, change from baseline, Mean (SE) [16]: −23 (13) μmol/L | ALT, change from baseline, Mean (SE) [17]: −56 (27) U/L | Total bilirubin, change from baseline, Mean (SE) [17]: −19 (7) μmol/L | ALT, change from baseline, Mean (SE) (week 48, sBA Response No): −32 (22) U/L | Total bilirubin, change from baseline, Mean (SE) (week 48, sBA Response No): −6 (14) μmol/L | ALT, change from baseline, Mean (SE) (week 48, sBA Response Yes): −112 (57) U/L | Total bilirubin, change from baseline, Mean (SE) (week 48, sBA Response Yes): −25 (11) μmol/L | ALT, change from baseline, Mean (SE) [18]: −5 (15) U/L | Total bilirubin, change from baseline, Mean (SE) [18]: 1 (20) μmol/L | ALT, change from baseline, Mean (SE) [19]: −108 (48) U/L | Total bilirubin, change from baseline, Mean (SE) [19]: −25 (9) μmol/L | responders with moderately or very much better sleep since starting odevixibat (clinician and caregiver reported) (week 48, patients with sBA response or pruritus response): ≥ 88%
